Measured values published in patent US5786137A, “Method for assaying components in an enzyme-protein substrate system” (Research Foundation of State University of New York, priority 1996, dated 1998).

What was measured:
[1] = test system: plasmin (binding to and degradation of FITC-fibrinogen); test: Plasmin-mediated fibrinogenolysis assay: fluorescence dequenching of FITC-fibrinogen; format: biochemical
Method: To illustrate plasmin-mediated fibrinogenolysis into degradation products, 10 nM of plasmin was mixed for about 5 seconds in the reaction buffer containing 250 nM FITC-fibrinogen. […] The action of plasmin on FITC-fibrinogen produced an immediate large increase in fluorescence intensity (dequenching) in a plasmin-dependent manner (FIG. 4). The detection limit has been found under routine conditions to be at least 10 picomolar plasmin.
In that competition, some plasmin was able to bind fibrinogen as indicated by the initial rate of dequenching.

[2] = test system: fibrinogen (FITC-fibrinogen polymerized by thrombin); settings: 1 U/ml thrombin
Method: Fibrinogen was labeled with FITC using a 0.1M sodium bicarbonate buffer. After stopping the reaction with hydroxylamine (0.15M final concentration), the FITC-fibrinogen was dialyzed extensively before storage. The buffer for the polymerization reaction comprised either 0.1M NaCl, 0.05M Tris-HCl, 5 mM CaCl2 ("buffer 1") or 0.3M NaCl, 0.05M Tris-HC1, 5 mM CaCl2 ("buffer 2"). Cuvettes were incubated with 10 μM bovine serum albumin for 30 minutes to minimize adsorption of substrate to the cuvette walls.
In a series of reactions to produce fibrinogen polymerization into fibrin fibers, thrombin (final concentrations ranging from 0.1 U/ml, 0.25 U/ml, 0.5 U/ml and 1 U/ml) was mixed for about 5 seconds in either buffer 1 or buffer 2 containing a dilute FITC-fibrinogen (<40 nM) solution. Polymerization was monitored by exciting the reaction mixture with blue light (488 nm) and monitoring the fluorescence emission at 515 nm using a fluorimeter.

In the case of `NCCCCCC(=O)O` [ε-amino caproic acid], the “progression of fibrinogenolysis (cessation of dequenching)” value ([1]; addition of 10 mM ε-amino caproic acid during fibrinogenolysis) is reported as “immediately inhibited”, the inhibition of dequenching ([1]; excess ε-amino caproic acid added after plasmin-mediated fibrinogenolysis was initiated (FIG. 8)) is reported as “dose-dependent inhibition” and the dequenching rate ([1]; plasmin preincubated with 10 mM ε-amino caproic acid before addition of fluorescent-labeled fibrinogen (FIG. 7)) is reported as “greatly reduced”.
For Gly-Pro-Arg-Pro [GPRP], the thrombin-induced quenching prevented ([2]; 100 μM GPRP added before polymerization) was “Over 80%” and the “rate and extent of quenching associated with polymerization” value ([2]; 0.1, 10 and 100 μM GPRP) was “reduced in a dose-dependent manner”.
